Results as given in patent US8604218B2, “Cytoskeletal active rho kinase inhibitor compounds, composition and use” (Inspire Pharmaceuticals, Inc., priority 2006, dated 2013).

Biological target: ROCK2 (Homo sapiens (Human), UniProt O75116)
Experiment: Rho Kinase Inhibition Assay (IMAP fluorescence polarization)
Format: biochemical
Conditions: isolated enzyme, 10 μM ATP, 60 minutes at room temperature
Description: Following the preincubation, 10 μM ATP was added to initiate the reaction. After 60 minutes at room temperature, Molecular Devices IMAP™ binding solution was added to bind phosphorylated substrate. After 30 minutes of incubation in the presence of the IMAP™ beads the fluorescence polarization was read and the ratio was reported as mP. IC50 results were calculated using the Prism software from Graphpad.
See Tian et al., Arch. Ophthalmol. […] Ophthalmol. Vis. […] Ophthalmol. […] Cytoskel. […] Ophthalmol. Vis. […] Ophthalmol. Vis.

Sequence of ROCK2 (O75116 11-552): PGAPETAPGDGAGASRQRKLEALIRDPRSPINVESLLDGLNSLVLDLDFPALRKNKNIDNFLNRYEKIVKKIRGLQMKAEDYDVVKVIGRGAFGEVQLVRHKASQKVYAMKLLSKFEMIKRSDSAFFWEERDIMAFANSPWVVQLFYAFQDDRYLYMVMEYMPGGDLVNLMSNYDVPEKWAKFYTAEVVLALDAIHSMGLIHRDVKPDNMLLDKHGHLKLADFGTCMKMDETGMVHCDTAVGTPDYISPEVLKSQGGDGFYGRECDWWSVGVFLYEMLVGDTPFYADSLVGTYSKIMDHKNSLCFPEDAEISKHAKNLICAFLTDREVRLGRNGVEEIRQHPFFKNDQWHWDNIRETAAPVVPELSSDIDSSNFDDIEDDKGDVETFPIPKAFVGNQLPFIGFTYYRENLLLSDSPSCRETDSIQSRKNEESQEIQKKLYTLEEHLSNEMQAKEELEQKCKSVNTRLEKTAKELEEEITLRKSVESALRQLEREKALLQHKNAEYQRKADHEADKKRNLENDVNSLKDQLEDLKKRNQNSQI

## OCCOc1cccc(CN2CCC[C@H](Nc3cccc4cnccc34)C2)c1 [Compound 2.036, (S)-2-(3-((3-(isoquinolin-5-ylamino)piperidin-1-yl)methyl)phenoxy)ethanol]
  IC50: 160 nM

## Cc1cccc(CN2CCCC(Nc3ccc4[nH]ncc4c3)C2)c1 (centres unmarked) [Compound 1.066, N-(1-(3-methylbenzyl)piperidin-3-yl)-1H-indazol-5-amine]
  IC50: 232 nM

## OCCOc1cccc(CN2CCC[C@H](Nc3ccc4[nH]ncc4c3)C2)c1 [Compound 1.090, (S)-2-(3-((3-(1H-indazol-5-ylamino)piperidin-1-yl)methyl)phenoxy)ethanol]
  IC50: 354 nM

## N#Cc1ccc(CN2CCCC(Nc3ccc4[nH]ncc4c3)C2)cc1 (centres unmarked) [Compound 1.038, 4-((3-(1H-indazol-5-ylamino)piperidin-1-yl)methyl)benzonitrile]
  IC50: 2760 nM

## OC[C@H](O)COc1cccc(CN2CCC[C@@H](Nc3ccc4[nH]ncc4c3)C2)c1 [Compound 1.113, (S)-3-(3-(((R)-3-(1H-indazol-5-ylamino)piperidin-1-yl)methyl)phenoxy)propane-1,2-diol]
  IC50: 859 nM

## CCSc1ccc(CN2CCCC(Nc3ccc4[nH]ncc4c3)C2)cc1 (centres unmarked) [Compound 1.017, N-(1-(4-(ethylthio)benzyl)piperidin-3-yl)-1H-indazol-5-amine]
  IC50: 215 nM

## Nc1cc(CN2CCCC(Nc3ccc4[nH]ncc4c3)C2)ccc1Cl (centres unmarked) [Compound 1.089, N-(1-(3-amino-4-chlorobenzyl)piperidin-3-yl)-1H-indazol-5-amine]
  IC50: 29.4 nM

## CN(c1cccc(CN2CCCC(Nc3ccc4[nH]ncc4c3)C2)c1)S(C)(=O)=O (centres unmarked) [Compound 1.121, N-(3-((3-(1H-indazol-5-ylamino)piperidin-1-yl)methyl)phenyl)-N-methylmethanesulfonamide]
  IC50: 578 nM

## CS(=O)(=O)Nc1cccc(CN2CC[C@H](Nc3ccc4[nH]ncc4c3)C2)c1 [Compound 1.095, (S)-N-(3-((3-(1H-indazol-5-ylamino)pyrrolidin-1-yl)methyl)phenyl)methanesulfonamide]
  IC50: 647 nM

## CCS(=O)(=O)Nc1cccc(CN2CCC[C@H](Nc3ccc4[nH]ncc4c3)C2)c1 [Compound 1.124, (S)-N-(3-((3-(1H-indazol-5-ylamino)piperidin-1-yl)methyl)phenyl)ethanesulfonamide]
  IC50: 59.2 nM

## CS(=O)(=O)Nc1cccc(CN2CCC[C@@H](Nc3ccc4[nH]ncc4c3)C2)c1 [Compound 1.093, (R)-N-(3-((3-(1H-indazol-5-ylamino)piperidin-1-yl)methyl)phenyl)methanesulfonamide]
  IC50: 101 nM

## CSc1ccc(CN2CCCC(Nc3ccc4[nH]ncc4c3)C2)cc1 (centres unmarked) [Compound 1.008, N-(1-(4-(methylthio)benzyl)piperidin-3-yl)-1H-indazol-5-amine]
  IC50: 65.8 nM

## c1cc2c(cc1CN1CCCC(Nc3ccc4[nH]ncc4c3)C1)OCCO2 (centres unmarked) [Compound 1.053, N-(1-((2,3-dihydrobenzo[b][1,4]dioxin-6-yl)methyl)piperidin-3-yl)-1H-indazol-5-amine]
  IC50: 189 nM

## c1cc2ccc(CN3CCCC(Nc4ccc5[nH]ncc5c4)C3)cc2[nH]1 (centres unmarked) [Compound 1.082, N-(1-((1H-indol-6-yl)methyl)piperidin-3-yl)-1H-indazol-5-amine]
  IC50: 30.4 nM

## OCCn1ccc2ccc(CN3CCC[C@@H](Nc4ccc5[nH]ncc5c4)C3)cc21 [Compound 1.108, (R)-2-(6-((3-(1H-indazol-5-ylamino)piperidin-1-yl)methyl)-1H-indol-1-yl)ethanol]
  IC50: 367 nM

## c1cn(-c2ccc(CN3CCCC(Nc4ccc5[nH]ncc5c4)C3)cc2)cn1 (centres unmarked) [Compound 1.010]
  IC50: 2800 nM

## C#Cc1cccc(CN2CCCC(Nc3ccc4[nH]ncc4c3)C2)c1 (centres unmarked) [Compound 1.047, N-(1-(3-ethynylbenzyl)piperidin-3-yl)-1H-indazol-5-amine]
  IC50: 57 nM

## Cc1ccc(CN2CCCC(Nc3ccc4[nH]ncc4c3)C2)cc1OCCO (centres unmarked) [Compound 1.058, 2-(5-((3-(1H-indazol-5-ylamino)piperidin-1-yl)methyl)-2-methylphenoxy)ethanol]
  IC50: 47.5 nM

## CCS(=O)(=O)Nc1cccc(CN2CC[C@@H](Nc3cccc4cnccc34)C2)c1 [Compound 2.041, (R)-N-(3-((3-(isoquinolin-5-ylamino)pyrrolidin-1-yl)methyl)phenyl)ethanesulfonamide]
  IC50: 168 nM

## FC(F)(F)c1cccc(CN2CCCC(Nc3ccc4[nH]ncc4c3)C2)c1 (centres unmarked) [Compound 1.063, N-(1-(3-(trifluoromethyl)benzyl)piperidin-3-yl)-1H-indazol-5-amine]
  IC50: 223 nM

## C#Cc1ccc(CN2CCCC(Nc3ccc4[nH]ncc4c3)C2)cc1O (centres unmarked) [Compound 1.083, 5-((3-(1H-indazol-5-ylamino)piperidin-1-yl)methyl)-2-ethynylphenol]
  IC50: 7310 nM

## c1cc2cc(CN3CCCC(Nc4ccc5[nH]ncc5c4)C3)ccc2s1 (centres unmarked) [Compound 1.054, N-(1-(benzo[b]thiophen-5-ylmethyl)piperidin-3-yl)-1H-indazol-5-amine]
  IC50: 132 nM

## CS(=O)(=O)Nc1cc(CN2CCCC(Nc3ccc4[nH]ncc4c3)C2)ccc1Cl (centres unmarked) [Compound 1.102, N-(5-((3-(1H-indazol-5-ylamino)piperidin-1-yl)methyl)-2-chlorophenyl)methanesulfonamide]
  IC50: 34.3 nM

## C#Cc1ccc(CN2CCC[C@@H](Nc3ccc4[nH]ncc4c3)C2)cc1 [Compound 1.076, (R)-N-(1-(4-ethynylbenzyl)piperidin-3-yl)-1H-indazol-5-amine]
  IC50: 111 nM

## Brc1ccc(Br)c(CN2CCCC(Nc3ccc4[nH]ncc4c3)C2)c1 (centres unmarked) [Compound 1.071, N-(1-(2,5-dibromobenzyl)piperidin-3-yl)-1H-indazol-5-amine]
  IC50: 5590 nM

## OCCOc1cccc(CN2CC[C@H](Nc3ccc4[nH]ncc4c3)C2)c1 [Compound 1.094, (S)-2-(3-((3-(1H-indazol-5-ylamino)pyrrolidin-1-yl)methyl)phenoxy)ethanol]
  IC50: 466 nM

## Cc1cccc(CN2CCCC(Nc3ccc4[nH]ncc4c3)C2)c1C (centres unmarked) [Compound 1.016, N-(1-(2,3-dimethylbenzyl)piperidin-3-yl)-1H-indazol-5-amine]
  IC50: 135 nM

## NC(=O)Cn1ccc2ccc(CN3CCC[C@@H](Nc4ccc5[nH]ncc5c4)C3)cc21 [Compound 1.106, (R)-2-(6-((3-(1H-indazol-5-ylamino)piperidin-1-yl)methyl)-1H-indol-1-yl)acetamide]
  IC50: 69.2 nM

## Cc1ccc(CN2CCC[C@H](Nc3ccc4[nH]ncc4c3)C2)cc1 [Compound 1.078, (S)-N-(1-(4-methylbenzyl)piperidin-3-yl)-1H-indazol-5-amine]
  IC50: 63.1 nM

## O=C(O)COc1cccc(CN2CCC[C@@H](Nc3ccc4[nH]ncc4c3)C2)c1 [Compound 1.125, (R)-2-(3-((3-(1H-indazol-5-ylamino)piperidin-1-yl)methyl)phenoxy)acetic acid]
  IC50: 879 nM

## OCCOc1cccc(CN2CC[C@@H](Nc3cccc4cnccc34)C2)c1 [Compound 2.039, (R)-2-(3-((3-(isoquinolin-5-ylamino)pyrrolidin-1-yl)methyl)phenoxy)ethanol]
  IC50: 101 nM

## c1cc(NC2CCCN(Cc3ccc(C4CC4)cc3)C2)c2ccncc2c1 (centres unmarked) [Compound 2.010, N-(1-(4-cyclopropylbenzyl)piperidin-3-yl)isoquinolin-5-amine]
  IC50: 1240 nM

## CC(=O)c1ccc(CN2CCCC(Nc3ccc4[nH]ncc4c3)C2)cc1 (centres unmarked) [Compound 1.036, 1-(4-((3-(1H-indazol-5-ylamino)piperidin-1-yl)methyl)phenyl)ethanone]
  IC50: 1020 nM

## N#Cc1cccc(CN2CCCC(Nc3cccc4cnccc34)C2)c1 (centres unmarked) [Compound 2.003, 3-((3-(isoquinolin-5-ylamino)piperidin-1-yl)methyl)benzonitrile]
  IC50: 5720 nM

## c1cc(N2CCOCC2)ccc1CN1CCCC(Nc2ccc3[nH]ncc3c2)C1 (centres unmarked) [Compound 1.012, N-(1-(4-morpholinobenzyl)piperidin-3-yl)-1H-indazol-5-amine]
  IC50: 12200 nM

## CN(C)CCCOc1ccc(CN2CCC(Nc3ccc4[nH]ncc4c3)C2)cc1 (centres unmarked) [Compound 1.007, N-(1-(4-(3-(dimethylamino)propoxy)benzyl)pyrrolidin-3-yl)-1H-indazol-5-amine]
  IC50: 3440 nM

## CS(=O)(=O)Cc1ccc(CN2CCCC(Nc3ccc4[nH]ncc4c3)C2)cc1 (centres unmarked) [Compound 1.029, N-(1-(4-(methylsulfonylmethyl)benzyl)piperidin-3-yl)-1H-indazol-5-amine]
  IC50: 11700 nM

## O=C(O)COc1cccc(CN2CCCC(Nc3ccc4[nH]ncc4c3)C2)c1 (centres unmarked) [Compound 1.086, 2-(3-((3-(1H-indazol-5-ylamino)piperidin-1-yl)methyl)phenoxy)acetic acid]
  IC50: 310 nM

## CCCCc1ccc(CN2CCCC(Nc3ccc4[nH]ncc4c3)C2)cc1 (centres unmarked) [Compound 1.014, N-(1-(4-butylbenzyl)piperidin-3-yl)-1H-indazol-5-amine]
  IC50: 4690 nM

## Clc1ccc(CN2CC[C@H](Nc3cccc4cnccc34)C2)cc1 [Compound 2.030, (S)-N-(1-(4-chlorobenzyl)pyrrolidin-3-yl)isoquinolin-5-amine]
  IC50: 2460 nM

## NCc1cccc(CN2CCCC(Nc3ccc4[nH]ncc4c3)C2)c1 (centres unmarked) [Compound 1.061, N-(1-(3-(aminomethyl)benzyl)piperidin-3-yl)-1H-indazol-5-amine]
  IC50: 282 nM

## O=C(O)Cn1ccc2cc(CN3CCCC(Nc4ccc5[nH]ncc5c4)C3)ccc21 (centres unmarked) [Compound 1.119, 2-(5-((3-(1H-indazol-5-ylamino)piperidin-1-yl)methyl)-1H-indol-1-yl)acetic acid]
  IC50: 3630 nM

## CSc1ccc(CN2CCC[C@H](Nc3ccc4[nH]ncc4c3)C2)cc1 [Compound 1.075, (S)-N-(1-(4-(methylthio)benzyl)piperidin-3-yl)-1H-indazol-5-amine]
  IC50: 74.5 nM

## c1ccc(CN2CCC(Nc3cccc4cnccc34)C2)cc1 (centres unmarked) [Compound 2.006, N-(1-benzylpyrrolidin-3-yl)isoquinolin-5-amine]
  IC50: 73.9 nM
